Some test systems named below: CAKI-1 renal; CCRF-CEM leukemia; HOP-92 NSCLC; KM12 colon; SK-MEL-28 melanoma; UO-31 renal; RXF 393 renal.
Common to all, as to assay: NCI anticancer screen, dose series, 48 h

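Interpolation was linear, between the two tested concentrations surrounding the appropriate level; five concentrations were tested over 48 hours in 96-well plates. Definition used: TGI = concentration required for complete inhibition of growth.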 Some results are limits rather than exact numbers.

For `O=C(c1ccccc1)c1c(CC(O)c2ccncc2)n(C(=O)c2ccccc2)c2ccccc12` (configuration not stated), the TGI with CAKI-1 renal is 59.7 µM; in the test on CCRF-CEM leukemia it was 61.9 µM; in the test with HOP-92 NSCLC it was 29.4 µM; in the test on KM12 colon, 37.8 µM; in the test with SK-MEL-28 melanoma, 32.4 µM; with UO-31 renal, 31.7 µM.
Regarding `O=C1OC(=O)c2c1c(-c1ccccc1)nc1ccccc21`, the TGI in the test on CAKI-1 renal, with CCRF-CEM leukemia, in the test with KM12 colon, in the test on RXF 393 renal, in the test with SK-MEL-28 melanoma and with UO-31 renal was over 100 µM throughout.
With `CC(C)(C)c1cc2nc(c1)C(C(F)(F)F)(C(F)(F)F)OB(Br)OC2(C(F)(F)F)C(F)(F)F`, the TGI with CAKI-1 renal worked out at 1.18 µM; in the test on CCRF-CEM leukemia, 0.677 µM; with KM12 colon, 11.3 µM; in the test on RXF 393 renal it was 22 µM; in the test on SK-MEL-28 melanoma it was 18.6 µM; with UO-31 renal, 2.72 µM.
Turning to `CC1=C(CC2C(=O)N(c3ccccc3)S(=O)(=O)NC2C)C(=O)N(c2ccccc2)S(=O)(=O)N1C` (configuration not stated), the TGI in the test on CAKI-1 renal, in the test on CCRF-CEM leukemia, in the test with HOP-92 NSCLC, with KM12 colon, with SK-MEL-28 melanoma and in the test on UO-31 renal was over 100 µM throughout.
As for `O=C(/C=C/c1ccc(Cl)c(Cl)c1)c1cccc2ccccc12`, the TGI is 20.4 µM with CAKI-1 renal; 7.18 µM with CCRF-CEM leukemia; 31.4 µM in the test with HOP-92 NSCLC; 16.3 µM with KM12 colon; 33.5 µM in the test with SK-MEL-28 melanoma; 33.8 µM with UO-31 renal.
For `ClC1=C(Cl)C(Cl)(Cl)c2c3c(c4c(c21)C(Cl)(Cl)C(Cl)=C4Cl)C(Cl)(Cl)C(Cl)=C3Cl`, the TGI in the test with CCRF-CEM leukemia, in the test on KM12 colon and in the test on SK-MEL-28 melanoma was over 100 µM throughout.
On to `c1cc(-c2cn3c(n2)SCC3)ccn1`, for which the TGI in the test with CAKI-1 renal, in the test with CCRF-CEM leukemia, with HOP-92 NSCLC, in the test with KM12 colon, with SK-MEL-28 melanoma and in the test with UO-31 renal was over 100 µM throughout.
With `CCOC(=O)/C(I)=C/c1cc(OC)c(OC)c(OC)c1`, the TGI in the test on CAKI-1 renal turned out to be 16.3 µM; with CCRF-CEM leukemia it was 8.6 µM; with HOP-92 NSCLC, 27.1 µM; in the test with KM12 colon it was 19.2 µM; with SK-MEL-28 melanoma it was 7.88 µM; in the test on UO-31 renal, 19.1 µM.
`Cc1ccccc1-n1c(N)c(-c2nc3ccccc3[nH]2)sc1=S`: the TGI in the test with CAKI-1 renal is 71.4 µM; in the test on CCRF-CEM leukemia, over 100 µM; in the test on KM12 colon, 39.9 µM; with RXF 393 renal, 62.4 µM; with SK-MEL-28 melanoma, 39.3 µM; with UO-31 renal it was 45.6 µM.
For `COc1ccc(OC(=O)CC2Cc3cc(OC)c(OC)c(OC)c3-c3ccc(SC)c(=O)cc32)cc1` (configuration not stated), the TGI in the test with CCRF-CEM leukemia was 10.1 µM; in the test with HOP-92 NSCLC, 9.05 µM; in the test with KM12 colon, 19.6 µM; with SK-MEL-28 melanoma, 98.9 µM; in the test on UO-31 renal, over 100 µM.
`COc1cc(C2(C)SCCCS2)cc(OC)c1OC`: the TGI in the test with CAKI-1 renal, with CCRF-CEM leukemia, in the test on HOP-92 NSCLC, in the test with KM12 colon, in the test with SK-MEL-28 melanoma and in the test on UO-31 renal was over 100 µM in each case.
Consider `CC1=C(C(=O)Nc2ccc(Cl)c(Cl)c2)C(c2ccc([N+](=O)[O-])cc2)C(C(=O)Nc2ccc(Cl)c(Cl)c2)=C(C)N1`, for which the TGI is 16 µM with CAKI-1 renal; 6.06 µM with HOP-92 NSCLC; 3.63 µM in the test on KM12 colon; 6.16 µM in the test on RXF 393 renal; 9.93 µM with SK-MEL-28 melanoma; 10.6 µM with UO-31 renal.
Consider `O=C(Cc1nc2ccccc2o1)C(=O)Nc1cccc(C(F)(F)F)c1`, for which the TGI with CAKI-1 renal, in the test with CCRF-CEM leukemia, with HOP-92 NSCLC, with KM12 colon, in the test with SK-MEL-28 melanoma and with UO-31 renal was over 100 µM throughout.
As to `CCCC(S(=O)(=O)c1ccccc1)S(=O)(=O)c1ccccc1`, the TGI in the test with CAKI-1 renal, in the test on CCRF-CEM leukemia, with KM12 colon, with RXF 393 renal, in the test with SK-MEL-28 melanoma and in the test with UO-31 renal was over 100 µM throughout.
In the case of `CC1=NN(c2ccccc2)C(=O)/C1=C\c1ccc([N+](=O)[O-])cc1`, the TGI was 73.6 µM in the test with CAKI-1 renal; 49.5 µM with CCRF-CEM leukemia; 64.3 µM with KM12 colon; 41.4 µM in the test with RXF 393 renal; over 100 µM in the test on SK-MEL-28 melanoma; over 100 µM in the test on UO-31 renal.
For `c1ccc2c(c1)CCc1c-2n[nH]c1-c1[nH]nc2c1CCc1ccccc1-2`, the TGI with CAKI-1 renal, in the test on CCRF-CEM leukemia, with HOP-92 NSCLC, in the test on KM12 colon, in the test with SK-MEL-28 melanoma and in the test on UO-31 renal was over 100 µM in each case.
